Laboratory results reported in US20080200404A1, “Novel Antimalarial 9A-Carbamoyl-Aminoalkyl and 9A-Thiocarbamoyl-Aminoalkyl Azalides” (priority 2005, published 2008).
Converted amounts (≈) assume the structure as drawn. Where two headings read alike, the source gives them in different places.

Legend:
Format in all cases: cell-based
[1] = tested on: Plasmodium falciparum clone CDC/Indochina III (W-2); assay: In vitro antimalarial [3H]-hypoxanthine incorporation serial dilution assay, W2; settings: Plasmodium falciparum; P. falciparum W2, 72 hours exposure
In short: (§1)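 Blood-stage cultures in RPMI-1640 with 6% A+ erythrocytes and human plasma or ALBUMAX, 37° C under 5% CO2/5% O2. Compounds in two-fold dilutions over 11 concentrations; [3H]-hypoxanthine incorporation after 72 h total incubation, CPM normalised to untreated parasite controls; IC50 by non-linear logistic fit.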

[2] = tested on: Plasmodium falciparum TM91C235; assay: In vitro antimalarial [3H]-hypoxanthine incorporation assay, TM91C235; settings: Plasmodium falciparum; P. falciparum TM91C235 (multiple drug resistant isolate), 72 hours exposure
In short: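 Multidrug-resistant P. falciparum TM91C235 was run at 0.4% parasitemia and 1% hematocrit in folate/PABA-free RPMI-1640 with ALBUMAX, at 37° C under 5% CO2/5% O2. Compound was tested in duplicate at 25,000, 2,500 and 25 ng/ml, preexposed 48 h, then [3H]-hypoxanthine was added (72 h total). Counts are expressed relative to untreated parasite controls.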

[3] = tested on: Plasmodium falciparum clone CDC/Sierra Leone I (D-6); assay: In vitro antimalarial [3H]-hypoxanthine incorporation serial dilution assay, D6; settings: Plasmodium falciparum, D6, 72 h, P. falciparum D6, 72 hours exposure
In short: as §1

[4] = compared with azithromycin, read-out: IC50 D6 (class symbol)

Row | SMILES | IC50 [1] [µg/mL] | IC50 [2] [µg/mL] | IC50 ([3]; read-out: IC50 D6) [µg/mL] | IC50 [3, 4] [µg/mL]
1 | CCc1ccc(NC(=O)NCCCN2C[C@H](C)C[C@@](C)(O)[C@H](O[C@@H]3O[C@H](C)C[C@H](N(C)C)[C@H]3O)[C@@H](C)[C@H](O[C@H]3C[C@@](C)(OC)[C@@H](O)[C@H](C)O3)[C@@H](C)C(=O)O[C@H](CC)[C@@](C)(O)[C@H](O)[C@H]2C)cc1 [Example 60] | 0.0693 (≈ 0.0738 µM) | 0.0933 (≈ 0.0993 µM) | 0.212 (≈ 0.226 µM) | –
2 | CC[C@H]1OC(=O)[C@H](C)[C@@H](O[C@H]2C[C@@](C)(OC)[C@@H](O)[C@H](C)O2)[C@H](C)[C@@H](O[C@@H]2O[C@H](C)C[C@H](N(C)C)[C@H]2O)[C@](C)(O)C[C@@H](C)CN(CCCNC(=S)Nc2ccc(F)cc2)[C@H](C)[C@@H](O)[C@]1(C)O [Example 99] | 0.0688 (≈ 0.0728 µM) | 0.131 (≈ 0.139 µM) | 0.302 (≈ 0.32 µM) | –
3 | C=CCNC(=S)NCCCN1C[C@H](C)C[C@@](C)(O)[C@H](O[C@@H]2O[C@H](C)C[C@H](N(C)C)[C@H]2O)[C@@H](C)[C@H](O[C@H]2C[C@@](C)(OC)[C@@H](O)[C@H](C)O2)[C@@H](C)C(=O)O[C@H](CC)[C@@](C)(O)[C@H](O)[C@H]1C [Example 111] | 0.246 (≈ 0.276 µM) | 0.459 (≈ 0.514 µM) | – | > 0.797
4 | CC[C@H]1OC(=O)[C@H](C)[C@@H](O[C@H]2C[C@@](C)(OC)[C@@H](O)[C@H](C)O2)[C@H](C)[C@@H](O[C@@H]2O[C@H](C)C[C@H](N(C)C)[C@H]2O)[C@](C)(O)C[C@@H](C)CN(CCCNC(=O)Nc2ccc(C(C)=O)cc2)[C@H](C)[C@@H](O)[C@]1(C)O.O=CO [Example 65] | 0.708 | 0.398 | – | > 0.797
5 | CC[C@H]1OC(=O)[C@H](C)[C@@H](O[C@H]2C[C@@](C)(OC)[C@@H](O)[C@H](C)O2)[C@H](C)[C@@H](O[C@@H]2O[C@H](C)C[C@H](N(C)C)[C@H]2O)[C@](C)(O)C[C@@H](C)CN(CCCNC(=S)Nc2cccc(F)c2)[C@H](C)[C@@H](O)[C@]1(C)O.O=CO [Example 131] | 0.198 | 0.115 | 0.507 | –
6 | CC[C@H]1OC(=O)[C@H](C)[C@@H](O[C@H]2C[C@@](C)(OC)[C@@H](O)[C@H](C)O2)[C@H](C)[C@@H](O[C@@H]2O[C@H](C)C[C@H](N(C)C)[C@H]2O)[C@](C)(O)C[C@@H](C)CN(CCCNC(=O)NCc2ccc(OC)cc2)[C@H](C)[C@@H](O)[C@]1(C)O [Example 67] | 0.195 (≈ 0.204 µM) | 0.462 (≈ 0.484 µM) | – | > 0.797
7 | CC[C@H]1OC(=O)[C@H](C)[C@@H](O[C@H]2C[C@@](C)(OC)[C@@H](O)[C@H](C)O2)[C@H](C)[C@@H](O[C@@H]2O[C@H](C)C[C@H](N(C)C)[C@H]2O)[C@](C)(O)C[C@@H](C)CN(CCCNC(=S)Nc2ccc(F)c(F)c2F)[C@H](C)[C@@H](O)[C@]1(C)O [Example 133] | 0.162 (≈ 0.165 µM) | 0.0723 (≈ 0.0737 µM) | 0.441 (≈ 0.449 µM) | –
8 | CC[C@H]1OC(=O)[C@H](C)[C@@H](O[C@H]2C[C@@](C)(OC)[C@@H](O)[C@H](C)O2)[C@H](C)[C@@H](O[C@@H]2O[C@H](C)C[C@H](N(C)C)[C@H]2O)[C@](C)(O)C[C@@H](C)CN(CCCNC(=O)Nc2ccc3c(c2)OCO3)[C@H](C)[C@@H](O)[C@]1(C)O [Example 68] | 0.106 (≈ 0.111 µM) | 0.254 (≈ 0.265 µM) | 0.798 (≈ 0.835 µM) | –
9 | CC[C@H]1OC(=O)[C@H](C)[C@@H](O[C@H]2C[C@@](C)(OC)[C@@H](O)[C@H](C)O2)[C@H](C)[C@@H](O[C@@H]2O[C@H](C)C[C@H](N(C)C)[C@H]2O)[C@](C)(O)C[C@@H](C)CN(CCCNC(=S)Nc2cccc3nsnc23)[C@H](C)[C@@H](O)[C@]1(C)O.O=CO [Example 150] | 0.091 | 0.105 | 0.181 | –
10 | CC[C@H]1OC(=O)[C@H](C)[C@@H](O[C@H]2C[C@@](C)(OC)[C@@H](O)[C@H](C)O2)[C@H](C)[C@@H](O[C@@H]2O[C@H](C)C[C@H](N(C)C)[C@H]2O)[C@](C)(O)C[C@@H](C)CN(CCCNC(=S)NC23CC4CC(CC(C4)C2)C3)[C@H](C)[C@@H](O)[C@]1(C)O [Example 130] | 0.207 (≈ 0.21 µM) | 0.15 (≈ 0.152 µM) | 0.545 (≈ 0.553 µM) | –
11 | CC[C@H]1OC(=O)[C@H](C)[C@@H](O[C@H]2C[C@@](C)(OC)[C@@H](O)[C@H](C)O2)[C@H](C)[C@@H](O[C@@H]2O[C@H](C)C[C@H](N(C)C)[C@H]2O)[C@](C)(O)C[C@@H](C)CN(CCCNC(=O)Nc2ccc(CC#N)cc2)[C@H](C)[C@@H](O)[C@]1(C)O [Example 63] | 0.141 (≈ 0.149 µM) | 0.542 (≈ 0.571 µM) | – | > 0.797
12 | CC[C@H]1OC(=O)[C@H](C)[C@@H](O[C@@H]2C[C@@H](C)[C@H](O)[C@](C)(OC)C2)[C@H](O)[C@@H](O[C@@H]2O[C@H](C)C[C@H](N(C)C)[C@H]2O)[C@](C)(O)C[C@@H](C)CN(CCCNC(=O)Nc2ccc(OCc3ccccc3)cc2)[C@H](C)[C@@H](O)[C@]1(C)O [Example 87] | 0.178 (≈ 0.175 µM) | 0.148 (≈ 0.146 µM) | 0.304 (≈ 0.299 µM) | –
13 | CC[C@H]1OC(=O)[C@H](C)[C@@H](O[C@H]2C[C@@](C)(OC)[C@@H](O)[C@H](C)O2)[C@H](C)[C@@H](O[C@@H]2O[C@H](C)C[C@H](N(C)C)[C@H]2O)[C@](C)(O)C[C@@H](C)CN(CCCNC(=S)Nc2ccc(C#N)cc2)[C@H](C)[C@@H](O)[C@]1(C)O [Example 98] | 0.0476 (≈ 0.05 µM) | 0.0745 (≈ 0.0782 µM) | 0.126 (≈ 0.132 µM) | –
14 | CC[C@H]1OC(=O)[C@H](C)[C@@H](O[C@H]2C[C@@](C)(OC)[C@@H](O)[C@H](C)O2)[C@H](C)[C@@H](O[C@@H]2O[C@H](C)C[C@H](N(C)C)[C@H]2O)[C@](C)(O)C[C@@H](C)CN(CCCNC(=S)Nc2ccc(Cl)cc2)[C@H](C)[C@@H](O)[C@]1(C)O [Example 103] | 0.0514 (≈ 0.0534 µM) | 0.103 (≈ 0.108 µM) | 0.18 (≈ 0.188 µM) | –
15 | CC[C@H]1OC(=O)[C@H](C)[C@@H](O[C@H]2C[C@@](C)(OC)[C@@H](O)[C@H](C)O2)[C@H](C)[C@@H](O[C@@H]2O[C@H](C)C[C@H](N(C)C)[C@H]2O)[C@](C)(O)C[C@@H](C)CN(CCCNC(=O)Nc2ccc3c(c2)CCC3)[C@H](C)[C@@H](O)[C@]1(C)O [Example 64] | 0.07 (≈ 0.0736 µM) | 0.0915 (≈ 0.0962 µM) | 0.253 (≈ 0.266 µM) | –
16 | CC[C@H]1OC(=O)[C@H](C)[C@@H](O[C@H]2C[C@@](C)(OC)[C@@H](O)[C@H](C)O2)[C@H](C)[C@@H](O[C@@H]2O[C@H](C)C[C@H](N(C)C)[C@H]2O)[C@](C)(O)C[C@@H](C)CN(CCCNC(=O)Nc2ccc(C(F)(F)F)cc2)[C@H](C)[C@@H](O)[C@]1(C)O.O=CO [Example 70] | 0.0765 | 0.0863 | 0.164 | –
17 | CCNC(=O)NCCN1C[C@H](C)C[C@@](C)(O)[C@H](O[C@@H]2O[C@H](C)C[C@H](N(C)C)[C@H]2O)[C@@H](C)[C@H](O[C@H]2C[C@@](C)(OC)[C@@H](O)[C@H](C)O2)[C@@H](C)C(=O)O[C@H](CC)[C@@](C)(O)[C@H](O)[C@H]1C [Example 158, 9-Deoxo-9-dihydro-9a-[N′-(ethyl)carbamoyl-β-amino-ethyl]-9a-aza-9a-homoerythromycin A] | 0.405 (≈ 0.476 µM) | 0.103 (≈ 0.121 µM) | 0.167 (≈ 0.197 µM) | –
18 | CC[C@H]1OC(=O)[C@H](C)[C@@H](O[C@H]2C[C@@](C)(OC)[C@@H](O)[C@H](C)O2)[C@H](C)[C@@H](O[C@@H]2O[C@H](C)C[C@H](N(C)C)[C@H]2O)[C@](C)(O)C[C@@H](C)CN(CCCNC(=O)Nc2ccc(C(C)C)cc2)[C@H](C)[C@@H](O)[C@]1(C)O [Example 66] | 0.0676 (≈ 0.0709 µM) | 0.0746 (≈ 0.0783 µM) | 0.214 (≈ 0.225 µM) | –
19 | CC[C@H]1OC(=O)[C@H](C)[C@@H](O[C@H]2C[C@@](C)(OC)[C@@H](O)[C@H](C)O2)[C@H](C)[C@@H](O[C@@H]2O[C@H](C)C[C@H](N(C)C)[C@H]2O)[C@](C)(O)C[C@@H](C)CN(CCCNC(=O)Nc2cc(F)cc3c2OCOC3)[C@H](C)[C@@H](O)[C@]1(C)O.O=CO [Example 82] | 0.316 | 0.227 | 0.293 | –
20 | CC[C@H]1OC(=O)[C@H](C)[C@@H](O[C@H]2C[C@@](C)(OC)[C@@H](O)[C@H](C)O2)[C@H](C)[C@@H](O[C@@H]2O[C@H](C)C[C@H](N(C)C)[C@H]2O)[C@](C)(O)C[C@@H](C)CN(CCCNC(=S)Nc2ccc(C3CC4CCC3C4)cc2)[C@H](C)[C@@H](O)[C@]1(C)O.O=CO (stereo partly drawn) [Example 110] | 0.0461 | 0.111 | 0.247 | –
21 | CC[C@H]1OC(=O)[C@H](C)[C@@H](O[C@H]2C[C@@](C)(OC)[C@@H](O)[C@H](C)O2)[C@H](C)[C@@H](O[C@@H]2O[C@H](C)C[C@H](N(C)C)[C@H]2O)[C@](C)(O)C[C@@H](C)CN(CCCNC(=S)Nc2ccc(OC(F)F)cc2)[C@H](C)[C@@H](O)[C@]1(C)O.O=CO [Example 134] | 0.279 | 0.0997 | 0.398 | –
22 | CC[C@H]1OC(=O)[C@H](C)[C@@H](O[C@H]2C[C@@](C)(OC)[C@@H](O)[C@H](C)O2)[C@H](C)[C@@H](O[C@@H]2O[C@H](C)C[C@H](N(C)C)[C@H]2O)[C@](C)(O)C[C@@H](C)CN(CCCNC(=O)Nc2ccc(OC)c(OC3CCCC3)c2)[C@H](C)[C@@H](O)[C@]1(C)O [Example 86] | 0.207 (≈ 0.201 µM) | 0.142 (≈ 0.138 µM) | 0.457 (≈ 0.445 µM) | –
23 | CCOC(=O)c1ccc(NC(=S)NCCCN2C[C@H](C)C[C@@](C)(O)[C@H](O[C@@H]3O[C@H](C)C[C@H](N(C)C)[C@H]3O)[C@@H](C)[C@H](O[C@H]3C[C@@](C)(OC)[C@@H](O)[C@H](C)O3)[C@@H](C)C(=O)O[C@H](CC)[C@@](C)(O)[C@H](O)[C@H]2C)cc1 [Example 112] | 0.0709 (≈ 0.0709 µM) | 0.107 (≈ 0.107 µM) | 0.121 (≈ 0.121 µM) | –
